Structures are written as SMILES.

Consider 61 molecules from a melting point compilation (Tetko et al.; mined from patent text by program, amines drawn as free bases though some values may be those of a salt).

As usually defined, the melting point is the temperature, or range, at which the solid turns liquid.

For `COc1cc(OC)c2c(=O)[nH]c(-c3cccc(OCCO)c3)nc2c1`, the melting point lay within 245 to 246 °C.

`O=C(O)CCNC(=O)C(Cl)(Cl)Cl` displayed a melting point of 102 to 110 °C.

Consider `COc1cc(CCC=O)ccc1OCc1nc(-c2ccccc2)oc1C`, for which the melting point lay within 80 to 81 °C.

Molecule `O=C(c1c[nH]nc1-c1ccccc1)C(CCN1CCC(O)(c2ccccc2)CC1)c1ccc(Cl)c(Cl)c1` (stereo unspecified) came in with a melting point of 99 to 101 °C.

Molecule `CC(CCC(=O)O)C1CCC2C3C(=O)CC4CC(OC=O)CCC4(C)C3CC(OC=O)C12C` (stereo unspecified) came in with a melting point of 208 to 211 °C.

On to `Cc1nc2c(N)nc3c(c2n1CCCCS(C)(=O)=O)CCCC3`, for which the melting point lay within 213 to 216 °C.

In the case of `O=C1C(=O)c2ccccc2C2=C1SCC1(CCN(CC(O)COc3ccc(F)cc3)CC1)O2` (stereo unspecified), the melting point was 174 to 175 °C.

On to `Cc1ccc(C(=O)OCn2ncc(=O)[nH]c2=O)cc1`, for which the melting point worked out at 139 °C.

For `COc1ccc(N2CCOCC2)c2sc(NC(=O)N(C)C3CCCCCC3)nc12`, the melting point lay within 198 to 200 °C.

Regarding `CC(=O)Nc1scc(C)c1C(=O)c1ccccc1`, the melting point fell in the range of 106 to 107 °C.

In the case of `O=C1CCC(N2C=Nc3ccccc3C2)C(=O)N1` (stereo unspecified), the melting point stood at 258 °C.

As to `CCC(O)(CC)Cc1ccc(NC(=O)/C=C/c2cnn(C)c2-c2ccc(F)cc2)cc1`, the melting point fell in the range of 150 to 151 °C.

`Cc1ccc(CCc2cc(Br)c3nc(N)sc3c2)nc1` registered a melting point of 216 to 218 °C.

As to `CCOC1=NS(=O)(=O)c2ccc(N)cc21`, the melting point lay in the range of 154 to 156 °C.

Turning to `Cc1cc(Nc2ccnc(Nc3ccc(S(=O)(=O)N(C)C4CCCN(C)C4)cc3)n2)ccc1F` (stereo unspecified), the melting point is 188 °C.

Regarding `N#CC1(c2ccc(C(=O)c3cccs3)cc2)CC1`, the melting point came to 106 °C.

Consider `O=c1c(C(F)(F)F)cn(Cc2ccccc2)c(=O)n1CCCCl`, for which the melting point was 100 to 101 °C.

`CC(C)Oc1cc(CCCOc2cc(CCC(=O)O)n(-c3ccccc3)n2)n(Cc2ccc(Cl)cc2Cl)n1` displayed a melting point of 146 to 148 °C.

`N#Cc1cc(C#N)cc(Oc2cccc(Oc3cc(C#N)cc(C#N)c3)c2)c1` gave a melting point of 212 to 213 °C.

In turn, `CN1C(c2ccc(Br)cc2)C2C(=O)N(Cc3ccc4c(c3)OCO4)C(=O)C2C1(C)C` (stereo unspecified) gave a melting point of 109 to 111 °C.

In turn, `Cc1noc(NC(=O)N2CCN(c3cc(-c4cccc(F)c4F)ncn3)CC2)c1C` registered a melting point of 210 to 211 °C.

As for `CCOC(=O)c1ccc(-c2ccc(F)cc2)cc1-c1ccc(OC)c(OC)c1`, the melting point was 127 °C.

The molecule `CCN(CC)c1ccc(NC(=O)N(C[C@H]2CC[C@H](CN(C(=O)Nc3ccc(N(CC)CC)cc3)C3CCCCCC3)CC2)C2CCCCCC2)cc1` came in with a melting point of 170 to 175 °C.

The molecule `CCOC(=O)c1cn(CCO)c2c(F)c(F)c(F)cc2c1=O` displayed a melting point of 175 to 177 °C.

As for `COc1ccc(/C=C/c2nc3c([nH]2)c(=O)n(C)c(=O)n3C)c(OC)c1`, the melting point is greater than 280 °C.

With `COCCNC(=O)c1cccc(-c2cccc3cc(C(O)c4cccc(C(F)(F)F)c4)sc23)c1` (stereo unspecified), the melting point lay within 126 to 127 °C.

As to `Brc1cccc(C2Cc3cnc(Nc4ccc(CCNCCN5CCOCC5)cc4)nc3-c3ccccc32)c1` (stereo unspecified), the melting point lay in the range of 85 to 87 °C.

The molecule `O=c1[nH]ccc2cc(S(=O)(=O)N3CCCNCC3)ccc12` showed a melting point of 266 to 267 °C.

`CCOC(=O)c1cc2cc(CC#N)ccc2o1` showed a melting point of 76 to 77 °C.

Regarding `Cc1nc2cccc(OCC=CCN3CCN(C4c5ccccc5CCc5ccccc54)CC3)c2s1`, the melting point was determined as 114 °C.

Turning to `COc1ccc(C(=O)NCCc2ccc(-c3ccc(OC(C)(C)C(=O)O)cc3)cc2)cc1`, the melting point was 180 to 183 °C.

For the molecule `O=C(c1ccc(F)cc1)C1CCN(CCCn2c(=O)[nH]c(=O)c3ccccc32)CC1`, the melting point is 193 °C.

`NC(=O)CCCC1(c2ccccc2)CC(O)=C(SCc2ccccc2)C(=O)O1` (stereo unspecified) registered a melting point of 47.5 to 53 °C.

In turn, `Cc1cn(C2OC(CO)C(O)C2O)c(=S)[nH]c1=O` (stereo unspecified) registered a melting point of 206 to 208 °C.

The molecule `COc1ccc2c(=O)[nH]c(-c3cc(C)c(OCCN4CCCC4)c(C)c3)nc2c1` yielded a melting point of 218 to 220 °C.

`CN1C(=O)N(CC(COc2ccc(-c3ccc(OC(F)(F)F)cc3)cc2)N(O)C=O)C(=O)C1(C)C` (stereo unspecified) displayed a melting point of 114 to 118 °C.

In turn, `CN(C)c1ccc(-c2nnc(-c3ccccc3)o2)cc1` gave a melting point of 135 to 140 °C.

The molecule `CC(C)N(C(=O)n1oc(=O)n(Cc2ccccc2)c1=O)c1ccc(F)cc1` displayed a melting point of 95 to 96 °C.

`Fc1ccc(-c2ncn(C3CCCCO3)c2-c2ccc(F)cc2)cc1` (stereo unspecified) registered a melting point of 149 to 152 °C.

For `COC(=O)C(=NOCF)c1ccccc1Oc1ncnc(Oc2ccccc2Cl)c1F`, the melting point fell in the range of 153 to 155 °C.

`CS(=O)(=O)Nc1ccc(OCC2CCNCC2)cc1` gave a melting point of 180 to 183 °C.

In turn, `CC(=O)C1(Nc2ccccc2)CCN(C(C)C)CC1` returned a melting point of 107 °C.

In the case of `Cc1cc2c(c3oc4ccccc4c(=O)c13)CC(C(=O)O)O2` (stereo unspecified), the melting point was in the range of 231 to 234 °C.

Molecule `CCOC(=O)C1[C@@H]2[C@@H](O)[C@@H]3O[C@H](c4ccc(C(C)(C)C)cc4)OC[C@H]3O[C@H]12` (stereo partly specified) returned a melting point of 113 to 116 °C.

On to `COc1cc(COc2nn(-c3ccccc3)cc2/C=C\c2csc(C)n2)ccc1OCc1nc(-c2ccco2)oc1C`, for which the melting point was in the range of 111 to 112 °C.

For the molecule `Cc1ccc(S(=O)(=O)OCCC2COc3ccccc3C2)cc1` (stereo unspecified), the melting point lay in the range of 91 to 93 °C.

With `CCN(CC)Cc1cc(C(N)=O)cc(Br)c1N`, the melting point lay in the range of 140 to 142 °C.

`CC(=O)NC(C(=O)O)C1c2ccccc2CCc2ccccc21` (stereo unspecified) showed a melting point of 220 to 223 °C.

The molecule `Cc1cc(C)cc(-c2nc(NC(=O)c3ccncc3)sc2-c2ccncc2)c1` displayed a melting point of 302 to 304 °C.

`CS(=O)(=O)N1CCN([C@@H](CNS(=O)(=O)c2ccc(OCc3ccnc4ccccc34)cc2)C(=O)NO)CC1` gave a melting point of 180 °C.

With `CCOC(=O)C1=C(C)NC(C)=C(/C=C/S(=O)(=O)NC(C)C)C1Cc1cccc([N+](=O)[O-])c1` (stereo unspecified), the melting point was in the range of 191 to 193 °C.

Molecule `CCN(C)c1nc(-c2cc(OC)cc(OC)c2)nc2sc(C#N)c(C)c12` displayed a melting point of 145 to 148 °C.

With `Cc1cccc(CC(NC(=O)C(c2ccccc2)c2ccccc2)C(=O)NC(C#N)COCc2cccc(C(=O)O)c2)c1` (stereo unspecified), the melting point was 160 to 162 °C.

In turn, `CCOC(=O)/C=C/c1ccc(-c2ccc(O)c(C34CC5CC(CC(C5)C3)C4)c2)c(Cl)c1` displayed a melting point of 216 to 218 °C.

For `CCOC(=O)c1cn(CCCl)c2cc(Cl)c(F)cc2c1=O`, the melting point worked out at 222 °C.

Regarding `CCOC(=O)c1c(C)nn(C)c1S(=O)(=O)N=c1nc2nc(C)cc(C)n2s1`, the melting point lay in the range of 167 to 168 °C.

The molecule `CCCCCCCCCCCCCCc1ccc(C(C)=O)c(O)c1` yielded a melting point of 45 to 46 °C.

`Cc1oc(-c2ccccc2)nc1COc1ccc2cc(CCc3nnn[nH]3)oc2c1` registered a melting point of 177 to 178 °C.

`O=C(c1cc(=O)c2cc3[nH]c(=O)oc3cc2[nH]1)N1CCC(Cc2ccccc2)CC1`: the melting point stood at 215 °C.

In the case of `C1CCC(Nc2nc(NC3CCCCC3)nc(NC3CCCCC3)n2)CC1`, the melting point was 225 °C.

Consider `N#Cc1cccc(-c2cncc(OC3SCC(O)C(O)C3O)c2)c1` (stereo unspecified), for which the melting point is 172 °C.
